The values below come from US20240262832A1, “SMALL MOLECULE MODULATORS OF GLUCOCEREBROSIDASE ACTIVITY AND USES THEREOF” (Vanqua Bio, Inc., priority 2021, published 2024).

The target in the test is T1, GCase (Homo sapiens, UniProt P04062).
T1 construct: endogenous in cells; host or cells: HeLa cells
T1 sequence (P04062 40-536): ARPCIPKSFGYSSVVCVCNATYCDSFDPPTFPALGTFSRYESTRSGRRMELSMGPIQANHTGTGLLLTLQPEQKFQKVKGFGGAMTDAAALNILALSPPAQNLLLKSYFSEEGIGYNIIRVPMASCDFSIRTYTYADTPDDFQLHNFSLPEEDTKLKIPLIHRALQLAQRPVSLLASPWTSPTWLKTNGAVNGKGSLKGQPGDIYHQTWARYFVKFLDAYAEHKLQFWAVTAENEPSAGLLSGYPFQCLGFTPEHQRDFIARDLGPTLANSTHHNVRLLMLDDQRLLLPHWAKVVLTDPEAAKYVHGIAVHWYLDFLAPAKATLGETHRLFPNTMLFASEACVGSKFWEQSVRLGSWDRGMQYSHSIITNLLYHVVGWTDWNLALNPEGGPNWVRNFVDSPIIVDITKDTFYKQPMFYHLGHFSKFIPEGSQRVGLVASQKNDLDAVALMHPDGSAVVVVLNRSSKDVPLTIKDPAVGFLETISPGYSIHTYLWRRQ
The experiment in a line: activation of GCase in a live cell PFB assay in HELA cells. The test is classed as cell-based.
One may read the EC50 as the concentration at which the effect is half-maximal. Low readings indicate greater potency, high ones weaker potency. For `Cc1cccc2cc(C(=O)N3CCC(Oc4ccccc4)CC3)oc12` [Compound 409, 1-(7-Methyl-1-benzofuran-2-carbonyl)-4-phenoxypiperidine], the EC50 is 10 to 50 µM. As for `O=C(c1cnn(-c2ccccc2)n1)N1CCC(Oc2ccccc2)CC1` [Compound 410, 4-Phenoxy-1-(2-phenyl-2H-1,2,3-triazole-4-carbonyl)piperidine], the figure is 10 to 50 µM; as for `c1ccc(OC2CCN(c3cnc4ccccc4n3)CC2)cc1` [Compound 414, 2-(4-Phenoxypiperidin-1-yl)quinoxaline], 10 to 50 µM. Molecule `O=C(c1ccc2cc[nH]c2c1)N1CCC(OCc2ccccc2)CC1` [Compound 415, 6-[4-(Benzyloxy)piperidine-1-carbonyl]-1H-indole] gave an EC50 of 50 to 100 µM. As for `O=C(c1ccc2cc[nH]c2c1)N1CCC(COc2ccccc2)CC1` [Compound 416, 6-[4-(Phenoxymethyl)piperidine-1-carbonyl]-1H-indole], the EC50 is 10 to 50 µM. As for `c1ccc(COC2CCN(c3cnc4ccccc4n3)CC2)cc1` [Compound 417, 2-[4-(Benzyloxy)piperidin-1-yl]quinoxaline], the figure is 10 to 50 µM; as for `c1ccc(OCC2CCN(c3cnc4ccccc4n3)CC2)cc1` [Compound 418, 2-[4-(Phenoxymethyl)piperidin-1-yl]quinoxaline], 10 to 50 µM.

Regarding `O=C(c1cn(CC2CCCCC2)nn1)N1CCC(OCc2ccccc2)CC1` [Compound 419], the EC50 is > 100 µM. In turn, `COc1ccc(OCC2CCN(C(=O)c3cccc(C#CC(C)(C)O)c3)CC2)cc1` [Compound 420] gave an EC50 of 10 to 50 µM. `COc1ccc(OCC2CCN(c3nc(C)ncc3Cl)CC2)cc1` [Compound 421]: the EC50 fell in the range of 10 to 50 µM. As to `COc1ccc(OCC2CCN(C(=O)COCC3CCCO3)CC2)cc1` (centres unmarked) [Compound 422], the EC50 was 10 to 50 µM. `O=C(c1cnn[nH]1)N1CCC(COc2ccc3c(c2)CCC3)CC1` [Compound 423]: the EC50 lay in the range of 50 to 100 µM. In the case of `COc1ccc(OCC2CCN(c3nccc(N4CCCC(O)C4)n3)CC2)cc1` (centres unmarked) [Compound 424], the EC50 is < 10 µM. As to `COc1ccc(OCC2CCN(Cc3cc(C)no3)CC2)cc1` [Compound 425], the EC50 was > 100 µM.

Take `CCc1ncc(C(=O)N2CCC(COc3ccc4c(c3)CCC4)CC2)cn1` [Compound 426]: the EC50 lay within 10 to 50 µM.

Molecule `COc1ccc(OCC2CCN(c3ncnc4cc[nH]c34)CC2)cc1` [Compound 427] returned an EC50 of 10 to 50 µM. As for `CN1CCC(COc2cccc(-c3cnc4ccccc4n3)c2)CC1` [Compound 428], the figure is 10 to 50 µM; as for `COc1ccc(OCC2CCN(c3nnc(N)s3)CC2)cc1` [Compound 429], > 100 µM; as for `COc1ccc(OCC2CCN(c3nncc(C)c3C)CC2)cc1` [Compound 430], 50 to 100 µM.

`COc1ccc(OCC2CCN(c3cncc(N)n3)CC2)cc1` [Compound 431]: the EC50 is 50 to 100 µM. In turn, `COc1ccc(OCC2CCN(C(=O)NCCc3cn[nH]c3)CC2)cc1` [Compound 432] had an EC50 of 50 to 100 µM. Next, `COc1ccc(OCC2CCN(C(=O)c3ccc(C#CC(C)(C)O)o3)CC2)cc1` [Compound 433]: 10 to 50 µM. Next, `CCN1CCC(NC(=O)N2CCC(COc3ccc(OC)cc3)CC2)C1` (centres unmarked) [Compound 434]: > 100 µM; `CSCc1ccc(C(=O)N2CCC(OCc3ccccc3)CC2)o1` [Compound 435]: > 100 µM; `CCc1noc(CNC(=O)N2CCC(COc3ccc(OC)cc3)CC2)n1` [Compound 436]: > 100 µM. Consider `COc1ccc(OCC2CCN(c3cncc(C(=O)N4CCCC4)n3)CC2)cc1` [Compound 437], for which the EC50 lay within 10 to 50 µM.

In turn, `CCNC(=O)c1ccc(N2CCC(COc3ccc(OC)cc3)CC2)nc1` [Compound 438] came in with an EC50 of 10 to 50 µM. `COc1ccc(OCC2CCN(C(=O)Nc3cnn(C)c3C)CC2)cc1` [Compound 439] returned an EC50 of 50 to 100 µM. As for `NCCn1cc(C(=O)N2CCC(COc3ccc4c(c3)CCC4)CC2)nn1` [Compound 440], the EC50 is > 100 µM.

Take `COc1ccc(OCC2CCN(c3nccnc3N(C)C)CC2)cc1` [Compound 441]: the EC50 is > 100 µM. For the molecule `COc1ccc(OCC2CCN(C(=O)Nc3cccc(CN)c3)CC2)cc1` [Compound 442], the EC50 is > 100 µM.

Take `COc1ccc(OCC2CCN(C(=O)Nc3ccc(C#N)cc3F)CC2)cc1` [Compound 443]: the EC50 lay within 50 to 100 µM. Regarding `COc1ccc(OCC2CCN(Cc3cnc(C)[nH]3)CC2)cc1` [Compound 444], the 50% effective concentration (EC50) is > 100 µM.

On to `COc1ccc(OCC2CCN(Cc3ccncc3C)CC2)cc1` [Compound 445], for which the EC50 was > 100 µM. As to `COc1ccc(OCC2CCN(C(=O)c3cccc(NC(=O)C(C)C)c3)CC2)cc1` [Compound 446], the EC50 was 10 to 50 µM. Take `COc1cccn(CC(=O)N2CCC(OCc3ccccc3)CC2)c1=O` [Compound 447]: the EC50 was > 100 µM. On to `COc1ccc(OCC2CCN(Cc3ccc(CO)o3)CC2)cc1` [Compound 448], for which the EC50 fell in the range of 10 to 50 µM. Next, `O=C(c1ccc(Cn2cccn2)o1)N1CCC(OCc2ccccc2)CC1` [Compound 449]: > 100 µM. As for `COc1ccc(OCC2CCN(Cc3ncc[nH]3)CC2)cc1` [Compound 450], the figure is 10 to 50 µM; as for `Cc1nccn1CCCC(=O)N1CCC(OCc2ccccc2)CC1` [Compound 451], > 100 µM; as for `COc1ccc(OCC2CCN(C(=O)c3cnc(O)cn3)CC2)cc1` [Compound 452], > 100 µM. Next, `COc1ccc(OCC2CCN(Cc3[nH]cnc3C)CC2)cc1` [Compound 453]: > 100 µM. As to `COc1ccc(OCC2CCN(CCCn3ccnc3C)CC2)cc1` [Compound 454], the EC50 was > 100 µM. Next, `CCn1ncnc1CN1CCC(COc2ccc(OC)cc2)CC1` [Compound 455]: 10 to 50 µM; `COc1ccc(OCC2CCN(Cc3c[nH]c(C#N)c3)CC2)cc1` [Compound 456]: < 10 µM; `COc1ccc(OCC2CCN(C(=O)c3ccc(CN4CCCC4)o3)CC2)cc1` [Compound 457]: > 100 µM. Consider `COc1ccc(OCC2CCN(c3nc(N)nc(C)c3C)CC2)cc1` [Compound 458], for which the EC50 was > 100 µM.

Take `COc1ccc(OCC2CCN(C(=O)c3cc(C)oc3C)CC2)cc1` [Compound 459]: the EC50 was in the range of 10 to 50 µM. Turning to `CCc1nc(CNC(=O)N2CCC(COc3ccc(OC)cc3)CC2)no1` [Compound 460], the EC50 fell in the range of 50 to 100 µM.

`COc1ccc(OCC2CCN(C(=O)c3cc(C(C)C)nc(N)n3)CC2)cc1` [Compound 461]: the EC50 was 10 to 50 µM. As to `COc1ccc(OCC2CCN(C(=O)c3cnc(N)nc3C)CC2)cc1` [Compound 462], the EC50 is > 100 µM. In turn, `COc1ccc(OCC2CCN(C(=O)c3cnc[nH]3)CC2)cc1` [Compound 463] had an EC50 of 50 to 100 µM. As for `CCc1cc(N2CCC(COc3ccc(OC)cc3)CC2)ncn1` [Compound 464], the figure is 10 to 50 µM; as for `CCCc1[nH]ncc1C(=O)N1CCC(OCc2ccccc2)CC1` [Compound 465], 50 to 100 µM; as for `COc1ccc(OCC2CCN(C(=O)Cc3ccccn3)CC2)cc1` [Compound 466], > 100 µM.

As to `COc1ccc(OCC2CCN(CC(C)(C)N3CCOCC3)CC2)cc1` [Compound 467], the EC50 is > 100 µM. Molecule `O=C(c1ccc(-c2nnc[nH]2)cc1)N1CCC(OCc2ccccc2)CC1` [Compound 468] returned an EC50 of 50 to 100 µM.

On to `C=CCn1ncc(CN2CCC(COc3ccc(OC)cc3)CC2)c1C` [Compound 469], for which the EC50 was > 100 µM. As for `CCc1nc(CN2CCC(COc3ccc(OC)cc3)CC2)no1` [Compound 470], the figure is > 100 µM; as for `COc1ccc(OCC2CCN(Cc3noc(C4CCCO4)n3)CC2)cc1` (centres unmarked) [Compound 471], 50 to 100 µM. With `COc1ccc(OCC2CCN(C(=O)CC3CCOC3)CC2)cc1` (centres unmarked) [Compound 472], the EC50 lay within 50 to 100 µM.

Regarding `COc1ccc(OCC2CCN(Cc3nnc(C4CC(N)C4)n3C)CC2)cc1` (centres unmarked) [Compound 473], the EC50 is > 100 µM. Turning to `COc1ccc(OCC2CCN(C(=O)CN3CCCN(C)CC3)CC2)cc1` [Compound 474], the 50% effective concentration (EC50) is > 100 µM. Next, `CCc1cnc(C)nc1N1CCC(COc2ccc(OC)cc2)CC1` [Compound 475]: 10 to 50 µM; `CCn1cc(-c2cccc(C(=O)N3CCC(OCc4ccccc4)CC3)c2)cn1` [Compound 476]: 50 to 100 µM; `COc1ccc(OCC2CCN(Cc3cscn3)CC2)cc1` [Compound 477]: < 10 µM.

`CC(=O)c1ccc(OCC(=O)N2CCC(OCc3ccccc3)CC2)cc1` [Compound 478] showed an EC50 of 50 to 100 µM. With `COc1ccc(OCC2CCN(CC(=O)Nc3cn(C)nc3C)CC2)cc1` [Compound 479], the EC50 was 10 to 50 µM.

Consider `COc1ccc(OCC2CCN(C(=O)NCCc3nccs3)CC2)cc1` [Compound 480], for which the EC50 was > 100 µM. `COc1ccc(OCC2CCN(C(=O)c3c(C)cccc3OC)CC2)cc1` [Compound 481] yielded an EC50 of 10 to 50 µM. For the molecule `COc1ccc(OCC2CCN(c3cc(C4CC(N)C4)ncn3)CC2)cc1` (centres unmarked) [Compound 482], the half-maximal effective concentration (EC50) is > 100 µM.

The molecule `COc1ccc(OCC2CCN(C(=O)CN3C(=O)CCC3C)CC2)cc1` (centres unmarked) [Compound 483] had an EC50 of 50 to 100 µM. Next, `COc1ccc(OCC2CCN(C(=O)Cn3cnnn3)CC2)cc1` [Compound 484]: > 100 µM.

For `Cc1ccc(-c2nc(N3CCC(CO)CC3)ncc2-c2ccc(CO)cc2)cc1` [Compound 485], the EC50 was in the range of 10 to 50 µM.
